The target of test [1] is Mitogen-activated protein kinase 8 (Homo sapiens, UniProt P45983). Description: Inhibition of JNK1 by ATF2 phosphorylation assay. Type of test: functional.
The target of test [2] is c-Jun N-terminal kinase, JNK (Homo sapiens, UniProt P45983+P53779+P45984). In words: Inhibition of PcJun phosphorylation in HepG2 cells. The format is functional, cell-based.
The target in test [3] is Mitogen-activated protein kinase 9 (Homo sapiens, UniProt P45984). In words: Inhibition of JNK2 by ATF2 phosphorylation assay. Type of test: functional.
Chain of Mitogen-activated protein kinase 9 (P45984 whole entry): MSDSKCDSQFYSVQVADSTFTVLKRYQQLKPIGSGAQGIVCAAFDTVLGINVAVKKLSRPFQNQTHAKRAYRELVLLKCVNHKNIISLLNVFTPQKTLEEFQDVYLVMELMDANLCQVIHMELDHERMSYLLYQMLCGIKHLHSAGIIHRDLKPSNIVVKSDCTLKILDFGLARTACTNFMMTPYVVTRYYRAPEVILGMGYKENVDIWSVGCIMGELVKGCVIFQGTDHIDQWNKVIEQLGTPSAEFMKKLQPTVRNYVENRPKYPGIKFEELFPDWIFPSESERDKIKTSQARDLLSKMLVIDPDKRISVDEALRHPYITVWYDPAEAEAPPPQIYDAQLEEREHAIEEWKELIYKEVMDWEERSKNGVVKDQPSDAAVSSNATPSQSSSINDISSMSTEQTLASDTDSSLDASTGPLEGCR

Chain of Mitogen-activated protein kinase 8 (P45983 whole entry): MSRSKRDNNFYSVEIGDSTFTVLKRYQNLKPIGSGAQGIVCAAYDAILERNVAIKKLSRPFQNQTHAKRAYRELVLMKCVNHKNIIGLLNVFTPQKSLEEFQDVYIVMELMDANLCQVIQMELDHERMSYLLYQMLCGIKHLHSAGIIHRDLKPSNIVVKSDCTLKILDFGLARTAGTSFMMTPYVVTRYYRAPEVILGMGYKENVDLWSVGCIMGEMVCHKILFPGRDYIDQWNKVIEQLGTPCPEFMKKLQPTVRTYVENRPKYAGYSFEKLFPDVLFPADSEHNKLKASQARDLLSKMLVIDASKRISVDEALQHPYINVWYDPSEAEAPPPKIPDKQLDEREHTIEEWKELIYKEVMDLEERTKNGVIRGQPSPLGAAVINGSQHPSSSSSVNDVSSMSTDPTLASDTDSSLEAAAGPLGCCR

Take `CS(=O)(=O)c1ccc(CNC(=O)c2cc(N)c(C#N)c(NCCN)n2)cc1`: in test [1], the IC50 came to 1.6 µM. This counts as single-digit micromolar.
As for `CS(=O)(=O)c1ccc(CNC(=O)c2cc(N)c(C#N)c(/C=C/CCO)n2)cc1`, the IC50 was 5.3 µM in test [2], 0.17 µM in test [1] and 0.24 µM in test [3].
On the same counts, the results for `CC(C)Nc1nc(C(=O)NCc2ccc(S(C)(=O)=O)cc2)cc(N)c1C#N` are 0.49 µM, 0.067 µM and 0.084 µM.
As to `CS(=O)(=O)c1ccc(CNC(=O)c2cc(N)c(C#N)c(NCCO)n2)cc1`, the figures for the concentration for half-maximal inhibition (IC50) in test [2], in test [1] and in test [3] were over 10 µM, 0.093 µM and 0.15 µM, respectively.
On the same counts, the results for `CS(=O)(=O)c1ccc(CNC(=O)c2cc(N)c(C#N)c(-c3ccc(C(=O)O)s3)n2)cc1` are over 10 µM, 0.25 µM and 0.16 µM.
As for `COc1ccc(Oc2nc(C(=O)NCc3ccc(S(C)(=O)=O)cc3)cc(N)c2C#N)cc1`, the IC50 in test [1] was determined as 0.42 µM; in test [3], 0.45 µM.
Regarding `C/C=C\c1nc(C(=O)NCc2ccc(S(C)(=O)=O)cc2)cc(N)c1C#N`, the results for the half-inhibitory concentration (IC50) in test [2], in test [1] and in test [3] were 5.5 µM, 0.15 µM and 0.26 µM, respectively.
For `CC(C)COc1nc(C(=O)NCc2ccc(S(C)(=O)=O)cc2)cc(N)c1C#N`, in that order: 0.7 µM, 0.088 µM and 0.37 µM.
Compound `CCCCC#Cc1c(N)cc(C(=O)NCc2ccc(S(C)(=O)=O)cc2)nc1OCC` had an IC50 in test [1] of over 10 µM.
In the case of `CS(=O)(=O)c1ccc(CNC(=O)c2cc(N)c(C#N)c(-c3ccsc3)n2)cc1`, the IC50 in test [2] worked out at 0.61 µM; in test [1] it was 0.081 µM; in test [3] it was 0.39 µM.
In the case of `CC(C)Oc1nc(C(=O)NCc2ccc(S(C)(=O)=O)cc2)cc(N)c1C#N`, the half-inhibitory concentration (IC50) in test [2] worked out at 0.25 µM; in test [1], 0.015 µM; in test [3], 0.038 µM.
For `CS(=O)(=O)c1ccc(CNC(=O)c2cc(N)c(C#N)c(-c3ccsc3CO)n2)cc1`, in that order: 10.8 µM, 0.57 µM and 0.68 µM.
Consider `CS(=O)(=O)c1ccc(CNC(=O)c2cc(N)c(C#N)c(-c3ccsc3CNCc3ccccc3)n2)cc1`, for which the IC50 in test [2] turned out to be 8.01 µM; in test [1], 1.99 µM.
With `CS(=O)(=O)c1ccc(CNC(=O)c2cc(N)c(C#N)c(NC3CC3)n2)cc1`, the IC50 was found to be 1.2 µM in test [2], 0.032 µM in test [1] and 0.069 µM in test [3].
Regarding `C[C@H](CO)Nc1nc(C(=O)NCc2ccc(S(C)(=O)=O)cc2)cc(N)c1C#N`, the 50% inhibitory concentration (IC50) was over 10 µM in test [2], 0.18 µM in test [1] and 0.32 µM in test [3].
Take `CS(=O)(=O)c1ccc(CNC(=O)c2cc(N)c(C#N)c(NCc3ccccc3)n2)cc1`: the IC50 in test [1] amounted to 0.82 µM; in test [3], 4.7 µM.
Regarding `CS(=O)(=O)c1ccc(CNC(=O)c2cc(N)c(C#N)c(NCCc3ccccc3)n2)cc1`, the figures for the 50% inhibitory concentration (IC50) in test [2], in test [1] and in test [3] were 2.7 µM, 0.26 µM and 1 µM, respectively.
With `CS(=O)(=O)c1ccc(CNC(=O)c2cc(N)c(C#N)c(NCCNC(N)=O)n2)cc1`, the 50% inhibitory concentration (IC50) is over 10 µM in test [2] and 0.093 µM in test [1].
As to `CS(=O)(=O)c1ccc(CNC(=O)c2cc(N)c(C#N)c(-c3cccnc3)n2)cc1`, the IC50 amounted to 7.3 µM in test [2], 0.32 µM in test [1] and 0.34 µM in test [3].
For `CC(C)NC(=O)c1nc(C(=O)NCc2ccc(S(C)(=O)=O)cc2)cc(N)c1C#N`, in that order: 2.9 µM, 0.43 µM and 0.12 µM.
Consider `CCOc1nc(C(=O)NCc2ccc(S(C)(=O)=O)cc2)cc(N)c1/C=C/C(C)(C)C`, for which the results for the IC50 in test [2], in test [1] and in test [3] were over 10 µM, 2.93 µM and 4.16 µM, respectively.
On the same counts, the results for `CCOc1nc(C(=O)NCc2ccc(S(C)(=O)=O)cc2)cc(N)c1/C=C/C#N` are 0.807 µM, 0.41 µM and 1.79 µM.
For `CS(=O)(=O)c1ccc(CNC(=O)c2cc(N)c(C#N)c(-c3cncnc3)n2)cc1`, in that order: over 10 µM, 0.62 µM and 0.86 µM.
On the same counts, the results for `C/C=C/c1nc(C(=O)NCc2ccc(S(C)(=O)=O)cc2)cc(N)c1C#N` are 0.89 µM, 0.048 µM and 0.23 µM.
For `C#C/C=C/c1c(N)cc(C(=O)NCc2ccc(S(C)(=O)=O)cc2)nc1OCC`, the results for the IC50 in test [2], in test [1] and in test [3] were 1.4 µM, 0.079 µM and 0.3 µM, respectively.
For `CN(C)CCNc1nc(C(=O)NCc2ccc(S(C)(=O)=O)cc2)cc(N)c1C#N`, the IC50 in test [1] is 7.3 µM; in test [3], 9.2 µM.
Regarding `CCOc1nc(C(=O)NCc2ccc(S(C)(=O)=O)cc2)cc(N)c1C(N)=O`, the half-maximal inhibitory concentration (IC50) in test [2] was 7.54 µM; in test [1] it was 0.318 µM; in test [3] it was 0.969 µM.
For `C[C@@H](CO)Nc1nc(C(=O)NCc2ccc(S(C)(=O)=O)cc2)cc(N)c1C#N`, the IC50 was found to be 2.6 µM in test [2], 0.022 µM in test [1] and 0.03 µM in test [3].
Take `CS(=O)(=O)c1ccc(CNC(=O)c2cc(N)c(C#N)c(NC3CCC3)n2)cc1`: the values for the half-maximal inhibitory concentration (IC50) in test [2], in test [1] and in test [3] were 0.62 µM, 0.085 µM and 0.16 µM, respectively.
On the same counts, the results for `COc1cccc(-c2nc(C(=O)NCc3ccc(S(C)(=O)=O)cc3)cc(N)c2C#N)c1` are 1.8 µM, 0.43 µM and 0.6 µM.
On the same counts, the results for `CS(=O)(=O)c1ccc(CNC(=O)c2cc(N)c(C#N)c(NCCC(N)=O)n2)cc1` are over 10 µM, 0.066 µM and 0.087 µM.
On the same counts, the results for `CS(=O)(=O)c1ccc(CNC(=O)c2cc(N)c(C#N)c(-c3cccc(O)c3)n2)cc1` are 9.4 µM, 0.2 µM and 0.24 µM.
Take `C=Cc1c(N)cc(C(=O)NCc2ccc(S(C)(=O)=O)cc2)nc1OCC`: the half-maximal inhibitory concentration (IC50) in test [2] turned out to be 4.63 µM; in test [1] it was 1.18 µM; in test [3], 1.46 µM.
In turn, `CCCNC(=O)c1c(N)cc(C(=O)NCc2ccc(S(C)(=O)=O)cc2)nc1OCC` registered an IC50 in test [1] of 5.25 µM.
In the case of `CCOc1nc(C(=O)NCc2ccc(S(C)(=O)=O)cc2)cc(N)c1C#CCO`, the IC50 in test [2] is 5.7 µM; in test [1] it was 1.09 µM.
On to `CS(=O)(=O)c1ccc(CNC(=O)c2cc(N)c(C#N)c(-c3cccc(Cl)c3)n2)cc1`, for which the IC50 in test [2] was determined as 1.2 µM; in test [1], 1.18 µM; in test [3], 0.84 µM.
Take `CS(=O)(=O)c1ccc(CNC(=O)c2cc(N)c(C#N)c(CCC(=O)O)n2)cc1`: the concentration for half-maximal inhibition (IC50) amounted to 1.64 µM in test [1] and 6.92 µM in test [3].
For `CC(C)[C@@H](CO)Nc1nc(C(=O)NCc2ccc(S(C)(=O)=O)cc2)cc(N)c1C#N`, in that order: 1.5 µM and 1.4 µM.
For `CCOc1nc(C(=O)NCc2ccc(S(C)(=O)=O)cc2)cc(N)c1C#C/C=C/CO`, the figures for the concentration for half-maximal inhibition (IC50) in test [2], in test [1] and in test [3] were 5.24 µM, 1.55 µM and 4.32 µM, respectively.
On the same counts, the results for `CS(=O)(=O)c1ccc(CNC(=O)c2cc(N)c(C#N)c(-c3cccc(S(C)(=O)=O)c3)n2)cc1` are 10.5 µM, 0.043 µM and 0.097 µM.
On the same counts, the results for `CS(=O)(=O)c1ccc(CNC(=O)c2cc(N)c(C#N)c(OCC3CC3)n2)cc1` are 0.56 µM, 0.023 µM and 0.047 µM.
On the same counts, the results for `CS(=O)(=O)c1ccc(CNC(=O)c2cc(N)c(C#N)c(OCC3CCCC3)n2)cc1` are 0.49 µM, 0.39 µM and 0.61 µM.
In the case of `CS(=O)(=O)c1ccc(CNC(=O)c2cc(N)c(C#N)c(-c3ccncc3)n2)cc1`, the IC50 in test [1] turned out to be 0.53 µM; in test [3] it was 0.66 µM.
As to `CCOc1nc(C(=O)NCc2ccc(S(C)(=O)=O)cc2)cc(N)c1/C=C/c1ccccc1`, the concentration for half-maximal inhibition (IC50) was determined as 6.92 µM in test [2], 2.43 µM in test [1] and 4.13 µM in test [3].
Turning to `CCOc1nc(C(=O)NCc2ccc(S(C)(=O)=O)cc2)cc(N)c1C#Cc1ccsc1`, the IC50 was 3.43 µM in test [1] and over 10 µM in test [3].
Regarding `CS(=O)(=O)c1ccc(CNC(=O)c2cc(N)c(C#N)c(NC3CCCC3)n2)cc1`, the half-maximal inhibitory concentration (IC50) in test [2] is 0.48 µM; in test [1], 0.096 µM; in test [3], 0.29 µM.
Take `C#Cc1c(N)cc(C(=O)NCc2ccc(S(C)(=O)=O)cc2)nc1OCC`: the IC50 in test [2] worked out at 1.89 µM; in test [1], 0.35 µM; in test [3], 0.3 µM.
With `CS(=O)(=O)c1ccc(CNC(=O)c2cc(N)c(C#N)c(NC(CO)CO)n2)cc1`, the IC50 was over 10 µM in test [2], 0.076 µM in test [1] and 0.1 µM in test [3].
On the same counts, the results for `COCCNc1nc(C(=O)NCc2ccc(S(C)(=O)=O)cc2)cc(N)c1C#N` are 5.9 µM, 0.12 µM and 0.21 µM.
For `CS(=O)(=O)c1ccc(CNC(=O)c2cc(N)c(C#N)c(/C=C/c3ccccc3)n2)cc1`, the values for the IC50 in test [2], in test [1] and in test [3] were 0.35 µM, 1.45 µM and 1.29 µM, respectively.
Regarding `CC(=O)NCCNc1nc(C(=O)NCc2ccc(S(C)(=O)=O)cc2)cc(N)c1C#N`, the IC50 in test [2] is over 10 µM; in test [1] it was 0.059 µM; in test [3], 0.081 µM.
Turning to `CS(=O)(=O)c1ccc(CNC(=O)c2cc(N)c(C#N)c(-c3ccoc3)n2)cc1`, the 50% inhibitory concentration (IC50) in test [2] was 4.3 µM; in test [1] it was 0.27 µM; in test [3], 0.53 µM.
On the same counts, the results for `CS(=O)(=O)c1ccc(CNC(=O)c2cc(N)c(C#N)c(/C=C/C(=O)O)n2)cc1` are over 2.5 µM, 0.3 µM and 0.43 µM.
For `CS(=O)(=O)c1ccc(CNC(=O)c2cc(N)c(C#N)c(NCCCO)n2)cc1`, in that order: 8.3 µM, 0.054 µM and 0.18 µM.
